The results in this text go back to ChEMBL document CHEMBL5108053 (J Med Chem, 2022).

Series [1] can be described thus: Lipophilicity, logD of the compound in Octanol/potassium phosphate buffer at pH 7.4 after 1 hr by shake-flask based LC-MS/MS analysis. In kind it is physicochemical. The following applies: octanol/water, pH 7.4, 1 h.
Series [2] in a line: Stability in human hepatocytes assessed as intrinsic clearance at 2 uM measured per 10^6 cells incubated at 15 to 120 mins by LC-MS/MS analysis. It counts as ADME, cell-based, Hepatocyte. The following applies: time 15-120 min.
Series [3] is described as follows: Oral bioavailability in C57BL/6 mouse at 1 mg/kg, iv or 10 mg/kg by HPLC analysis. To be noted: in vivo. In kind it is ADME, organism-based.
Series [4] in a line: Volume of distribution in C57BL/6 mouse at 1 mg/kg, iv or 10 mg/kg, po by HPLC analysis. In kind it is ADME, organism-based. The following applies: in vivo.
The nature of series [5]: Stability in mouse hepatocytes assessed as intrinsic clearance at 2 uM measured per 10^6 cells incubated at 15 to 120 mins by LC-MS/MS analysis. It counts as ADME, cell-based, Hepatocyte. The following applies: time 15-120 min.

Turning to `CCCCSC[C@H]1O[C@@H](S[C@@H]2O[C@H](CO)[C@H](O)[C@H](n3cc(-c4cccc(F)c4)nn3)[C@H]2O)[C@H](O)[C@@H](n2cc(-c3cccc(F)c3)nn2)[C@H]1O`, the logD (in general, lipophilicity at a set pH, counting ionised and neutral species) in series [1] stood at 3.4.

With `CC(=O)Nc1ccc(S[C@H]2O[C@H](CO)[C@H](O)[C@H](n3cc(-c4cc(F)c(F)c(F)c4)nn3)[C@H]2O)cc1`, the logD in series [1] worked out at 2.28.

As to `OC[C@H]1O[C@H](Sc2cncc(Br)c2)[C@H](O)[C@@H](n2cc(-c3cc(F)c(F)c(F)c3)nn2)[C@H]1O` [SELVIGALTIN], the logD in series [1] is reported as 3. Besides, in series [2], the CLH amounted to 0.15 µL/min. Also, the bioavailability (as a rule, dose-corrected exposure relative to a reference, in per cent) in series [3] is 68%. In series [4], the Vd came out at 1.1 L/kg.

Compound `OC[C@H]1O[C@@H](S[C@@H]2O[C@H](CO)[C@H](O)[C@H](n3cc(-c4cccc(F)c4)nn3)[C@H]2O)[C@H](O)[C@@H](n2cc(-c3cccc(F)c3)nn2)[C@H]1O` [OLITIGALTIN] registered a logD in series [1] of 2.1.

As for `C[C@H]1O[C@@H](S[C@@H]2O[C@H](CO)[C@H](O)[C@H](n3cc(-c4cccc(F)c4)nn3)[C@H]2O)[C@H](O)[C@@H](n2cc(-c3cccc(F)c3)nn2)[C@H]1O`, in series [1], the logD is 2.4.

For `OC[C@H]1O[C@H](Sc2ccc(Cl)c(Cl)c2)[C@H](O)[C@@H](n2cc(-c3cc(F)c(F)c(F)c3)nn2)[C@H]1O`, in series [1], the log distribution coefficient (logD) is 4.6. Also, the values for the CLH in series [2] and in series [5] were 0.7 µL/min and 0.8 µL/min, respectively. The bioavailability in series [3] turned out to be 75%. The compound further gave a Vd in series [4] of 0.4 L/kg.

Consider `N#Cc1ccc(S[C@H]2O[C@H](CO)[C@H](O)[C@H](n3cc(-c4cc(F)c(F)c(F)c4)nn3)[C@H]2O)cc1Cl`, for which the logD in series [1] came to 3.7. The CLH in series [2] was 0.8 µL/min; in series [5], 1.1 µL/min. The compound also returned a bioavailability in series [3] of 95%. The same compound displayed a Vd in series [4] of 0.9 L/kg.
